Patent US12006530B2, “Streptococcal proteases” (priority 2016, dated 2024)
“Also recorded” adds a separate entry of the source.

Assays:
[1] = test system: IgG degradation activity in culture supernatant of S. suis strain 10; experiment: Inhibitor profile of IgG degradation activity in S. suis culture supernatant, anti-IgG Western blot; format: biochemical, Streptococcus suis; conditions: for IgG cleavage product in presence of inhibitor: concentrated (10×) supernatant of strain 10, porcine plasma; for IgG cleaving activity in the presence of class specific protease inhibitors: protease enriched ammonium sulfate precipitates of S. suis culture supernatant, porcine plasma
Experimental: Concentrated (10×) culture supernatant of S. suis strain 10 was incubated with porcine plasma in presence of class specific protease inhibitors. The reaction was analyzed by anti-IgG western blot under reducing conditions.
To monitor IgG cleavage activity in concentrated and fractionated culture supernatants, samples were incubated with 1% porcine plasma in PBS for 16 h at 37° C. prior to Western blot analyses.
To identify the catalytic type of the IgG protease, the IgG degradation reaction was performed in the presence of 0.1-5 mM AEBSF (Sigma), 0.1-5 mM EDTA, 50-250 μM E-64 (Sigma), 0.1-5 mM Z-LVG-CHN2 (Bachem), 0.1-5 mM Iodoacetamide (Sigma) or 1/200 to 1/50 dilution of complete protease inhibitor cocktail (Roche).
(§1) Samples for SDS-PAGE were prepared with either reducing or non-reducing sample buffer and heated to 95° C. for 5 min. 12% SDS-PAGE was either stained with Coomassie blue (Sigma), Coomassie Fluor™ Orange Protein Gel Stain (Invitrogen) or blotted to Hybond-P PVDF membrane (GE Healthcare) for western blot analyses. Membranes were blocked with 5% dry milk powder in 0.1% PBS-Tween, followed by incubation with horse-radish peroxidase conjugated antibodies. Goat anti-pig IgG-HRP (Thermo Scientific) and goat anti-porcine IgM-HRP (Thermo Scientific) was diluted 1:25′000 and goat anti-porcine IgA-HRP (Thermo Scientific) was diluted 1:12′500. Membranes were thoroughly washed with 0.1% PBS-Tween prior to development with Amersham ECL Select Western blotting detection reagent (GE Healthcare) according to manufactures instruction and pictured by LAS4000 imaging system (Fujifilm).

S. suis IgdE^ΔC = experiment: Inhibitor profile of purified recombinant IgdE^ΔC, quantitative IgG degradation analysis; format: biochemical, Streptococcus suis; conditions: porcine IgG
Experimental: The time course of cleavage (A) was monitored by continuous sampling prior to Coomassie fluor orange stained SDS-PAGE under reducing conditions followed by densitometric quantification of the cleavage product. 1.67 μM porcine IgG was incubated with 0.2 μM purified rIgdE^ac. Overnight cleavage (16 h) was set as 100% relative cleavage. For the inhibitor profile (B) initial cleavage in presence of 250 μM and 2.5 μM of each inhibitor was monitored. Initial cleavage activity of the uninhibited control was set as 100% relative activity. The DMSO control correlates to 250 μM Z-LVG-CHN2. Data are presented as mean±SEM of three experiments. Differences to the uninhibited control (*) or DMSO control (□) were analyzed by Dunnett's Multiple Comparison Test with significance set at P values of <0.05(*), <0.01(**) and <0.001(*** or □□□).
For time course analyses and inhibitor profiles the IgG degradation reaction was performed with 0.25 mg/ml porcine IgG and 2 μM purified IgdE^ΔC at 37° C. in PBS uninhibited or in the presence of 2.5 μM or […] AEBSF (Sigma), EDTA, E-64 (Sigma), lodoacetamide (Sigma), or Z-LVG-CHN2 (Bachem). DMSO (Sigma) at 0.275%, corresponding to the DMSO content in 250 µM Z-LVG-CHN2, was used as a solvent control. The reactions were continuously sampled and subjected to SDS-PAGE under reducing conditions. Protein bands were detected by staining with Coomassie Fluor™ Orange Protein Gel Stain (Invitrogen). The IgG degradation product was densitometrical quantified by imaging with LAS4000 imaging system (Fujifilm) and analyzed with Image Studio Version 3.1 (LI-COR Biosciences) software. Uninhibited over-night cleavage was set as 100% relative cleavage for the time course experiment. For the inhibitor profile the initial cleavage rate was calculated from the initial increase of cleavage product (0-25% relative cleavage) and the initial cleavage rate of the uninhibited reaction was set as 100% relative activity. Experiments were at least performed in triplicates. Statistical analyses were performed using GraphPad Prism Version 5.0.

porcine IgG = experiment: IgG cleavage by IgdE, SDS-PAGE; format: biochemical, pig; conditions: 3.3 μM porcine IgG, 16 h at 37° C., soluble fractions of E. coli expressing the construct, reducing SDS-PAGE
Experimental: (A) Schematic illustration of IgdE and the different rIgdE constructs with potential active site residues substitutions and the C-terminal truncation variant. The secretion signal peptide (residues 1-37) is marked in light grey, the transglutaminase domain is boxed and the potential active site residues and substitutions are indicated. (B) 3.3 μM porcine IgG was incubated for 16 h at 37° C. with soluble fractions of E. coli cells expressing different rIgdE constructs. The reaction was analyzed SDS-PAGE under reducing conditions. […] The weak protein band of 37 kDa is a contaminant present in lysate preparation and not related to IgdE activity.
0.5 mg/ml of porcine IgG (Sigma) in PBS or of other species (human, goat, cow, horse and mouse; all Sigma) were incubated with either crude extracts of induced E. coli carrying S. suis IgdE constructs mentioned above or 10 nM purified rIgdE for 16 h at 37° C. prior subjection to SDS-PAGE under either reducing or non-reducing conditions.
as §1

With `NCCc1ccc(S(=O)(=O)F)cc1` [AEBSF] the “IgG cleavage product in presence of inhibitor” value ([1]; inhibitor 5 mM) was “no degradation product was observed”, the “IgG cleavage product in presence of inhibitor” value ([1]; inhibitor 0.1-1 mM) was “A cleavage product of IgG can be observed” and the “IgG cleaving activity in the presence of class specific protease inhibitors” value [1] was “interfered moderately with IgG cleavage”. The “IgG proteolytic activity of purified IgdE^ΔC in presence of inhibitor” value (S. suis IgdE^ΔC; 125 fold molar excess of inhibitor, 37° C., up to 18 h) was “inhibited the IgdEAC moderately”.

`CC(C)C[C@H](NC(=O)[C@H]1O[C@@H]1C(=O)O)C(=O)NCCCCN=C(N)N` [E-64] was tested, and the “IgG cleavage activity of S. suis culture supernatants in presence of inhibitor” value ([1]; at very high concentrations) was “interfered with IgG cleavage activity”, the “IgG cleavage product in presence of inhibitor” value ([1]; inhibitor 50 μM) was “A cleavage product of IgG can be observed” and the “IgG cleavage product in presence of inhibitor” value ([1]; inhibitor 250 μM) was “no degradation product was observed”. For the same molecule, the “IgG cleaving activity in the presence of class specific protease inhibitors” value [1] was “appeared to inhibit IgG degrading activity” and the “IgG proteolytic activity of purified IgdE^ΔC in presence of inhibitor” value (S. suis IgdE^ΔC; purified recombinant IgdE^ΔC, inhibitor at 250 μM and 2.5 μM per FIG. 3) was “did not inhibit”.

B1: rIgdE^D348A (protein)
chain: DENSHLQSPKNTNKIEVLNWEAFSKKLKDYSSDQRQFHVLKLGFENRLGTLSTREELEEFGKNNNFLVINGKVTQNIHDFPHILVMNKGDVIAHNEEDYHNQMRELRFSGNGDLHNSMEPKRIHALFKIELDSNKRQLLNAAGLGTAENSLKNINGMTIYSHGLTVDNKYYEDYSKYTHNSVKNINVTKERFIANDDLIHKLIESSEAMKQSSERDKVKAFVQYVANHTTYDWEAANKAVQNYADINYYLGSDLFAVTERQKAMCVGFSTTAARAFNMLGLPAYVVVGKNAEGVPHATARVYYDKKWHTIAGTGFITGNKHQRSAKYSEKHFSTIGEDSYDVVEAGQEPKAERNYMIIDSNYESWAMKQKTADLLLFNKEKSLVGLDYIAYVEPTYITENKKNHLLDIYKALKRKVEETKATDKDDKDDKQEGYDRVLQFVNSDIDKLSALSKITEEEFKALENSMDLARVFLGQMNAKAGKEFSEGETYQSYLKNRQKNNTNSDDDRNRNELQENQANSDEVSQNSKDASAPSVNSAQQSEELEGTPSTQETISAAPSQQTPAAPKALQAKTELEDKTETSSLGNTEMVSPSSETAQNTVDSKEESDAKLPYVEPSSKESSEAQVNTVSSPQVSSASPTSSETISTDTVTASQEKAESRVSAPQVISASQTSPETNSAEVVTTSQEVAKAPVSAPQVSSEIQTLSETAPTEVATEAPELSALESNPAPQTSLETTPTEEVTETPEPSVVESNSASPTSPETNSAEAVTTSQEMAEPSVSVPQVSSEIPTSSETAPAEVATEVSEESSSASQPSPETTPTETVTTSQEVAEAPVSAPQVSSEIPTSPETASTEVVVAKQEVADSPVSAPQVISEIPTSSETAPAEVATEVTEPSVVASSSASPTSPEANSTEVVVAKQEVADPLVSAPQTSSASLTLEVPKNEHLDEKADATTPNGVEANTHEAVSVPTSDIRVQDAGSDTVPQPYSLSATLFEEAISTVEPVGVATSSQERSAVAGKVKVPTSLERSNNSVEEEKVVDSNATIENREPEKKEILTSENVLNSLVTIWVALSTSFFMRYFSRGK
With B1 the “IgG cleavage (32 kDa band) by rIgdE constructs” value (“IgG cleavage (32 kDa band)” below) (porcine IgG) was “IgG cleavage (*) occurred; also recorded: somewhat reduced IgG cleaving activity”.

B2: rIgdE^C302S (protein)
chain: DENSHLQSPKNTNKIEVLNWEAFSKKLKDYSSDQRQFHVLKLGFENRLGTLSTREELEEFGKNNNFLVINGKVTQNIHDFPHILVMNKGDVIAHNEEDYHNQMRELRFSGNGDLHNSMEPKRIHALFKIELDSNKRQLLNAAGLGTAENSLKNINGMTIYSHGLTVDNKYYEDYSKYTHNSVKNINVTKERFIANDDLIHKLIESSEAMKQSSERDKVKAFVQYVANHTTYDWEAANKAVQNYADINYYLGSDLFAVTERQKAMSVGFSTTAARAFNMLGLPAYVVVGKNAEGVPHATARVYYDKKWHTIDGTGFITGNKHQRSAKYSEKHFSTIGEDSYDVVEAGQEPKAERNYMIIDSNYESWAMKQKTADLLLFNKEKSLVGLDYIAYVEPTYITENKKNHLLDIYKALKRKVEETKATDKDDKDDKQEGYDRVLQFVNSDIDKLSALSKITEEEFKALENSMDLARVFLGQMNAKAGKEFSEGETYQSYLKNRQKNNTNSDDDRNRNELQENQANSDEVSQNSKDASAPSVNSAQQSEELEGTPSTQETISAAPSQQTPAAPKALQAKTELEDKTETSSLGNTEMVSPSSETAQNTVDSKEESDAKLPYVEPSSKESSEAQVNTVSSPQVSSASPTSSETISTDTVTASQEKAESRVSAPQVISASQTSPETNSAEVVTTSQEVAKAPVSAPQVSSEIQTLSETAPTEVATEAPELSALESNPAPQTSLETTPTEEVTETPEPSVVESNSASPTSPETNSAEAVTTSQEMAEPSVSVPQVSSEIPTSSETAPAEVATEVSEESSSASQPSPETTPTETVTTSQEVAEAPVSAPQVSSEIPTSPETASTEVVVAKQEVADSPVSAPQVISEIPTSSETAPAEVATEVTEPSVVASSSASPTSPEANSTEVVVAKQEVADPLVSAPQTSSASLTLEVPKNEHLDEKADATTPNGVEANTHEAVSVPTSDIRVQDAGSDTVPQPYSLSATLFEEAISTVEPVGVATSSQERSAVAGKVKVPTSLERSNNSVEEEKVVDSNATIENREPEKKEILTSENVLNSLVTIWVALSTSFFMRYFSRGK
B2 was tested, and the “IgG cleavage (32 kDa band)” value (porcine IgG) was “neither rIgdE^C302S nor rIgdE^H333A exhibited IgG cleaving activity”.

B3: rIgdE^H333A (protein)
chain: DENSHLQSPKNTNKIEVLNWEAFSKKLKDYSSDQRQFHVLKLGFENRLGTLSTREELEEFGKNNNFLVINGKVTQNIHDFPHILVMNKGDVIAHNEEDYHNQMRELRFSGNGDLHNSMEPKRIHALFKIELDSNKRQLLNAAGLGTAENSLKNINGMTIYSHGLTVDNKYYEDYSKYTHNSVKNINVTKERFIANDDLIHKLIESSEAMKQSSERDKVKAFVQYVANHTTYDWEAANKAVQNYADINYYLGSDLFAVTERQKAMCVGFSTTAARAFNMLGLPAYVVVGKNAEGVPAATARVYYDKKWHTIDGTGFITGNKHQRSAKYSEKHFSTIGEDSYDVVEAGQEPKAERNYMIIDSNYESWAMKQKTADLLLFNKEKSLVGLDYIAYVEPTYITENKKNHLLDIYKALKRKVEETKATDKDDKDDKQEGYDRVLQFVNSDIDKLSALSKITEEEFKALENSMDLARVFLGQMNAKAGKEFSEGETYQSYLKNRQKNNTNSDDDRNRNELQENQANSDEVSQNSKDASAPSVNSAQQSEELEGTPSTQETISAAPSQQTPAAPKALQAKTELEDKTETSSLGNTEMVSPSSETAQNTVDSKEESDAKLPYVEPSSKESSEAQVNTVSSPQVSSASPTSSETISTDTVTASQEKAESRVSAPQVISASQTSPETNSAEVVTTSQEVAKAPVSAPQVSSEIQTLSETAPTEVATEAPELSALESNPAPQTSLETTPTEEVTETPEPSVVESNSASPTSPETNSAEAVTTSQEMAEPSVSVPQVSSEIPTSSETAPAEVATEVSEESSSASQPSPETTPTETVTTSQEVAEAPVSAPQVSSEIPTSPETASTEVVVAKQEVADSPVSAPQVISEIPTSSETAPAEVATEVTEPSVVASSSASPTSPEANSTEVVVAKQEVADPLVSAPQTSSASLTLEVPKNEHLDEKADATTPNGVEANTHEAVSVPTSDIRVQDAGSDTVPQPYSLSATLFEEAISTVEPVGVATSSQERSAVAGKVKVPTSLERSNNSVEEEKVVDSNATIENREPEKKEILTSENVLNSLVTIWVALSTSFFMRYFSRGK
With B3 the “IgG cleavage (32 kDa band)” value (porcine IgG) was “neither rIgdE^C302S nor rIgdE^H333A exhibited IgG cleaving activity”.
